Among the data in PubChem BioAssay AID248 (DTP/NCI, 2004) are T/C values, retold here.

Where “and” joins values, the source holds several entries; their conditions need not be identical. Equal entries are not always repeated. Inconclusive results and toxic doses are left out.

This assay deals with L1210 leukemia ip in BDF1 mice, survival T/C. Description: NCI In Vivo Anticancer Drug Screen. Data for tumor model L1210 Leukemia (intraperitoneal) in B6D2F1 (BDF1) mice. Conditions: endpoint: mean survival time, higher = longer survival. The method, boiled down: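 Antitumor effect is assessed in tumor-bearing animals. Survival in the compound arm is compared with a vehicle-dosed control arm and expressed as their quotient.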

Where [1] appears, read: dose: 100.0 mg/kg/injection, schedule: Q04DX003 (ip), vehicle: saline with Tween-80.
[2] abbreviates: dose: 200.0 mg/kg/injection, schedule: Q04DX003 (ip), vehicle: saline with Tween-80.
[3] abbreviates: dose: 400.0 mg/kg/injection, schedule: Q04DX003 (ip), vehicle: saline with Tween-80.
[4] abbreviates: dose: 50.0 mg/kg/injection, schedule: Q01DX001 (ip), vehicle: saline.
Where [5] appears, read: dose: 100.0 mg/kg/injection, schedule: Q01DX001 (ip), vehicle: saline.
Setting [6] is: dose: 100.0 mg/kg/injection, schedule: Q04DX003 (ip), vehicle: saline.
Where [7] appears, read: dose: 200.0 mg/kg/injection, schedule: Q01DX001 (ip), vehicle: saline.
[8] abbreviates: dose: 200.0 mg/kg/injection, schedule: Q04DX003 (ip), vehicle: saline.
[9] abbreviates: dose: 400.0 mg/kg/injection, schedule: Q01DX001 (ip), vehicle: saline.
The mark [10] stands for this setting: dose: 400.0 mg/kg/injection, schedule: Q01DX001 (ip), vehicle: carboxymethylcellulose (CMC).
Setting [11] is: dose: 50.0 mg/kg/injection, schedule: Q04DX002 (ip), vehicle: saline with Tween-80.
[12] abbreviates: dose: 100.0 mg/kg/injection, schedule: Q04DX002 (ip), vehicle: saline with Tween-80.
Where [13] appears, read: dose: 200.0 mg/kg/injection, schedule: Q04DX002 (ip), vehicle: saline with Tween-80.

As to `OCC1OCCO1`, the T/C reads like this: (dose: 100.0 mg/kg/injection, schedule: Q01DX009 (ip), vehicle: saline with Tween-80) 96 % of control; under setting [1], 110 % of control; (dose: 200.0 mg/kg/injection, schedule: Q01DX009 (ip), vehicle: saline with Tween-80) 93 % of control; under setting [2], 102 % of control; (dose: 400.0 mg/kg/injection, schedule: Q01DX009 (ip), vehicle: saline with Tween-80) 96 % of control; under setting [3], 100 % of control.

Turning to `COc1cccc2c1C1c3ccccc3C(O)CC1CC2O` (configuration not stated), the T/C (dose: 37.5 mg/kg/injection, schedule: Q01DX001 (ip), vehicle: Klucel (hydroxypropylcellulose) (HPC)) is 89 % of control; the T/C (dose: 75.0 mg/kg/injection, schedule: Q01DX001 (ip), vehicle: Klucel (hydroxypropylcellulose) (HPC)) is 104 % of control; the T/C (dose: 150.0 mg/kg/injection, schedule: Q01DX001 (ip), vehicle: Klucel (hydroxypropylcellulose) (HPC)) was 91 % of control.

As to `NCCNCCNCCN`, the T/C under setting [4] is 95 % of control; the T/C under setting [5] was 95 % of control; the T/C (dose: 100.0 mg/kg/injection, schedule: Q01DX009 (ip), vehicle: saline) was 93 % of control; the T/C under setting [6] was 102 % of control; the T/C under setting [7] is 98 % of control; the T/C (dose: 200.0 mg/kg/injection, schedule: Q01DX009 (ip), vehicle: saline) is 93 % of control. Moreover, the T/C is, setting by setting: under setting [8], 105 % of control; under setting [9], 101 % of control; (dose: 400.0 mg/kg/injection, schedule: Q01DX009 (ip), vehicle: saline) 109 % of control; (dose: 400.0 mg/kg/injection, schedule: Q04DX003 (ip), vehicle: saline) 94 % of control.

As for `CC(=O)Nc1c(Cl)c(Cl)c2c(c1Cl)C(=O)c1cc(Cl)ccc1-2`, the T/C by setting is: (dose: 100.0 mg/kg/injection, schedule: Q01DX001 (ip), vehicle: carboxymethylcellulose (CMC)) 92 % of control; (dose: 100.0 mg/kg/injection, schedule: Q01DX Z (ip), vehicle: carboxymethylcellulose (CMC)) 102 % of control; (dose: 200.0 mg/kg/injection, schedule: Q01DX001 (ip), vehicle: carboxymethylcellulose (CMC)) 90 % of control; (dose: 200.0 mg/kg/injection, schedule: Q01DX Z (ip), vehicle: carboxymethylcellulose (CMC)) 98 % of control; under setting [10], 95 % of control; (dose: 400.0 mg/kg/injection, schedule: Q01DX Z (ip), vehicle: carboxymethylcellulose (CMC)) 98 % of control. Also, the T/C (dose: 800.0 mg/kg/injection, schedule: Q01DX Z (ip), vehicle: carboxymethylcellulose (CMC)) is 102 % of control.

As for `c1ccc(CSCc2ccccc2)cc1`, the T/C was 97 % of control (dose: 50.0 mg/kg/injection, schedule: Q01DX009 (ip), vehicle: Klucel (hydroxypropylcellulose) (HPC)); 105 % of control (dose: 100.0 mg/kg/injection, schedule: Q01DX009 (ip), vehicle: Klucel (hydroxypropylcellulose) (HPC)); 105 % of control (dose: 100.0 mg/kg/injection, schedule: Q04DX002 (ip), vehicle: Klucel (hydroxypropylcellulose) (HPC)); 96 % of control under setting [1]; 102 % of control and 86 % of control (dose: 200.0 mg/kg/injection, schedule: Q01DX009 (ip), vehicle: Klucel (hydroxypropylcellulose) (HPC)); 105 % of control (dose: 200.0 mg/kg/injection, schedule: Q04DX002 (ip), vehicle: Klucel (hydroxypropylcellulose) (HPC)). In addition, the T/C is, setting by setting: under setting [2], 104 % of control; (dose: 400.0 mg/kg/injection, schedule: Q01DX009 (ip), vehicle: Klucel (hydroxypropylcellulose) (HPC)) 86 % of control; (dose: 400.0 mg/kg/injection, schedule: Q04DX002 (ip), vehicle: Klucel (hydroxypropylcellulose) (HPC)) 105 % of control; under setting [3], 96 % of control.

Take `COC(=O)/C=C(/Oc1cccc(C)c1)C(=O)OC`: the T/C is 101 % of control (dose: 100.0 mg/kg/injection, schedule: Q04DX003 (ip), vehicle: other); 96 % of control (dose: 200.0 mg/kg/injection, schedule: Q04DX003 (ip), vehicle: other); 96 % of control (dose: 400.0 mg/kg/injection, schedule: Q04DX003 (ip), vehicle: other).

In the case of `CCc1ccc(N2C(N)=NC(N)=NC2(C)C)cc1`, the T/C is 104 % of control (dose: 25.0 mg/kg/injection, schedule: Q01DX001 (ip), vehicle: saline); 100 % of control under setting [4]; 105 % of control and 110 % of control under setting [5].

As for `CCOC(=O)/C=C1\CCCc2ccc(Cl)cc21`, the T/C was 111 % of control under setting [11]; 101 % of control and 104 % of control under setting [12]; 101 % of control under setting [13]; 101 % of control (dose: 400.0 mg/kg/injection, schedule: Q04DX002 (ip), vehicle: saline with Tween-80).

On to `OC1CCC2=C(C1)C1CCC2C1` (configuration not stated), for which the T/C runs as follows: (dose: 12.5 mg/kg/injection, schedule: Q04DX003 (ip), vehicle: saline with Tween-80) 96 % of control; (dose: 25.0 mg/kg/injection, schedule: Q04DX003 (ip), vehicle: saline with Tween-80) 89 % of control; (dose: 50.0 mg/kg/injection, schedule: Q04DX003 (ip), vehicle: saline with Tween-80) 98 % of control.

As to `CC(C)C(C(=O)O)N1C(=O)C2C3CCC(C3)C2C1=O` (configuration not stated), the T/C (dose: 25.0 mg/kg/injection, schedule: Q04DX003 (ip), vehicle: saline) was 86 % of control; the T/C (dose: 50.0 mg/kg/injection, schedule: Q04DX003 (ip), vehicle: saline) was 93 % of control; the T/C under setting [1] was 89 % of control; the T/C under setting [6] was 96 % of control; the T/C under setting [2] was 103 % of control; the T/C under setting [3] was 98 % of control.

For `Cc1cc2nc3c(=O)[nH]c(=O)nc-3n(CCN(CCCl)CCCl)c2cc1C`, the T/C by setting is: (dose: 42.0 mg/kg/injection, schedule: Q01DX015 (ip), vehicle: carboxymethylcellulose (CMC)) 115 % of control; (dose: 72.0 mg/kg/injection, schedule: Q01DX015 (ip), vehicle: carboxymethylcellulose (CMC)) 96 % of control; (dose: 120.0 mg/kg/injection, schedule: Q01DX015 (ip), vehicle: carboxymethylcellulose (CMC)) 86 % of control; under setting [10], 152 % of control; (dose: 600.0 mg/kg/injection, schedule: Q01DX001 (ip), vehicle: carboxymethylcellulose (CMC)) 103 % of control.

Consider `CCN(Cc1ccccc1)c1nn[nH]n1`, for which the T/C is 98 % of control under setting [5], 102 % of control under setting [7] and 102 % of control under setting [9].

For the molecule `O=C(O)CCCCCNCc1cc(=O)[nH]c(=O)[nH]1`, the T/C under setting [6] is 97 % of control and the T/C under setting [8] was 101 % of control.

As to `CC(=O)OCC(=O)C1CCC2(C)C3=C(CCC12C)C1(C)CCC(=O)C(C)(C)C1CC3` (configuration not stated), the T/C is 105 % of control (dose: 50.0 mg/kg/injection, schedule: Q01DX001 (sc), vehicle: steriod suspending solution); 94 % of control (dose: 100.0 mg/kg/injection, schedule: Q01DX001 (sc), vehicle: steriod suspending solution); 100 % of control (dose: 200.0 mg/kg/injection, schedule: Q01DX001 (sc), vehicle: steriod suspending solution); 100 % of control (dose: 400.0 mg/kg/injection, schedule: Q01DX001 (sc), vehicle: steriod suspending solution).

For `c1ccc(N=Nc2cccnn2)cc1`, the T/C reads like this: under setting [11], 97 % of control; under setting [12], 105 % of control; under setting [13], 94 % of control.

On to `FC(F)(F)c1ccc2c(c1)N(CCCN1CCN(CCC3OCCCO3)CC1)c1ccccc1S2`, for which the T/C is 102 % of control (dose: 0.78 mg/kg/injection, schedule: Q04DX003 (ip), vehicle: saline); 101 % of control (dose: 1.56 mg/kg/injection, schedule: Q04DX003 (ip), vehicle: saline); 102 % of control (dose: 3.12 mg/kg/injection, schedule: Q04DX003 (ip), vehicle: saline); 96 % of control (dose: 6.25 mg/kg/injection, schedule: Q04DX003 (ip), vehicle: saline); 112 % of control (dose: 12.5 mg/kg/injection, schedule: Q04DX003 (ip), vehicle: saline).

Consider `C=CCNc1ccnc(SC)n1`, for which the T/C is, setting by setting: (dose: 100.0 mg/kg/injection, schedule: Q01DX001 (ip), vehicle: gum acacia) 94 % of control; (dose: 200.0 mg/kg/injection, schedule: Q01DX001 (ip), vehicle: gum acacia) 103 % of control.

Take `NC(=O)C1C(=O)c2cccc3c2C1(Br)C(Br)CCC3` (configuration not stated): the T/C under setting [5] was 93 % of control.

Take `O=C(COc1ccc(Cl)c(Cl)c1)NCCc1cc[n+](Cc2ccc(S(=O)(=O)F)cc2)cc1`: the T/C is, setting by setting: under setting [1], 102 % of control; under setting [2], 86 % of control.
